According to patent publication US20090074895A1, “COMPOSITION AND USES THEREOF” (VANADIS BIOSCIENCE LTD, priority 2005, published 2009):
Entries after “also recorded” stand apart in the source; their conditions may differ.

Legend:
Assay type in all cases: in vivo, rat
diabetic rats [1] = experiment: Serum cholesterol concentrations after 7 day oral treatment of diabetic rats (lovastatin, MKH, combination); conditions: for HDL cholesterol / LDL cholesterol / LDL/HDL ratio / Total cholesterol: 7 day oral treatment, lovastatin 20 mg/kg/day, MKH 2 mg/kg/day, n = 8; for Change in total cholesterol (in words): 7 days oral treatment
diabetic Wistar rats = experiment: Blood glucose and OGTT after 5 days oral treatment, alloxan-diabetic rats; conditions: for Glucose blood concentration, After OGTT / Glucose blood concentration, After treatment (one dose daily for 5 days) / Glucose blood concentration, Before treatment: diabetic Wistar rats (alloxan), n = 8; for Glucose blood concentration, After OGTT: 30 minutes after OGTT (glucose 4 g/kg orally) after the 5th dose; for Glucose blood concentration, After treatment (one dose daily for 5 days): MKH 4 mg/kg, stevioside 20 mg/kg orally per day, before OGTT; for Glucose blood concentration, Before treatment: baseline of the group before treatment; for Effect on glucose levels under increased glucose loading during the OGTT (in words): substances given alone, rat group not given
Method: (§1) In this study white, adult male Wistar rats with average weights between 200 to 300 grams were used. During the study, the animals had free access to food and water and were exposed to changes of dark and light every 12 hours. Access to the food was restricted 12 hours before measurement of glucose blood level with free access to water.
(§2) The experiment was performed on a normoglycaemic group (Group 1, 32 rats, 8 per treatment) and diabetic rats (Group 2, 32 rats, 8 per treatment). For the diabetic rat experiments diabetes was induced with intraperitoneal injection of alloxan 100 mg/kg. Alloxan is very well verified diabetogenic substance for inducing diabetes in rats and other animal species (rabbit, dog, mice et cetera). See, for example, McLetchie, J.R. Coll Physicians Edinb, 32: 134-142, 2002; Lenzen & Panten, Diabetologia, 31: 337-342, 1988; Shaw et al., Lancet, 11: 384-386, 1943; Goldner & Gomori, Endocrinology, 35: 241-268, 1943.
(§3) 1). Saline solution, 1 ml/kg, per orally, daily for 5 days (control group); 2). Stevioside, 20 mg/kg, orally, daily for 5 days; 3). Sodium salt of 3α,7α-dihydroxy-12-oxo-5β-cholanate (monoketocholic acid-MKC), 4 mg/kg, orally, daily for 5 days; and 4). 1 ml/kg of the composition described in Example 1, orally, daily for 5 days.
(§4) In the diabetic rat the criterion for successful diabetes induction was blood glucose greater than 20 mmol/L on the third day after the last alloxan dose after 3 hours of fasting with free access to water.
(§5) 15 minutes after the 5th dose, the animals were exposed to an oral glucose tolerance test (OGTT) using 4 g/kg, orally. Glucose blood concentrations were measured before the treatment, after the 5th dose, before OGTT, and 30 minutes after OGTT. Then the animals were anaesthetised with urethane injected intraperitoneally, 750 mg/kg, and blood samples for further biochemical analyses were taken by cardiopunction.

[2] = tested on: normoglycaemic Wistar rats; experiment: Blood glucose and oral glucose tolerance test (OGTT) after 5 days oral treatment, normoglycaemic rats; conditions: n = 8; for Glucose blood concentration, After OGTT: 30 minutes after OGTT (glucose 4 g/kg orally) after the 5th dose; for Glucose blood concentration, After treatment (one dose daily for 5 days): MKH 4 mg/kg, stevioside 20 mg/kg orally per day, before OGTT; for Glucose blood concentration, Before treatment: baseline of the group before treatment
Method: as §1, §2, §3, §5

normoglycaemic rats [3] = experiment: Serum cholesterol and lipid profile after 5 days treatment, normoglycaemic rats; conditions: for Change in HDL serum cholesterol concentration (in words) / Change in LDL serum cholesterol concentration versus control (in words) / Change in total cholesterol serum concentration (in words): normoglycaemic (non-diabetic) rats, 5 days treatment; for HDL serum cholesterol concentration / LDL serum cholesterol concentration / Serum total cholesterol concentration / LDL:HDL Ratio (ratios of means): normoglycaemic rats, n = 8; for HDL serum cholesterol concentration / LDL serum cholesterol concentration / Serum total cholesterol concentration: 5 days treatment orally; for LDL:HDL Ratio (ratios of means): after 5 days treatment
Method: as §3, §5
(§6) All biochemical analyses of serum were done by standard procedures, as recommended by the International Federation for Clinical Chemistry (IFCC), on automatic spectrophotometer LISA 300 plus with International Quality Control. The following were measured in serum:
(§7) 1). Triglycerides concentration (GPO-PAP kit obtained from Boehringer Mannheim GmbH (Mannheim, Germany) in accordance with the manufacturers instructions) 2). Total low density lipoprotein (LDL) and high density lipoprotein (HDL) 3). Cholesterol concentration (CHOD-PAP kit obtained from Boehringer Mannheim GmbH (Mannheim, Germany) in accordance with the manufacturers instructions); and 4). C-peptide concentration.
(§8) The composition from Example 1 was trialled to see the effect on cholesterol levels and on serum lipid profiles. Generally the desired outcome was a decrease in low density lipoprotein (LDL), with no concomitant decrease in high density lipoprotein (HDL). It was also hypothesised that there would be a compatibility with glycaemic effects shown in Example 2.
(§9) The experimental procedures were essentially those described in Example 2.

diabetic rats [4] = experiment: Serum cholesterol and lipid profile after 5 days treatment, diabetic rats; conditions: for HDL cholesterol serum concentration / LDL cholesterol serum concentration / Serum total cholesterol concentration: 5 days treatment orally; for HDL cholesterol serum concentration / LDL cholesterol serum concentration / Serum total cholesterol concentration / LDL:HDL Ratio (ratios of means): n = 8; for LDL:HDL Ratio (ratios of means): after 5 days treatment
Method: as §2, §3, §5, §6, §7, §8, §9

diabetic rats [5] = experiment: C peptide serum concentration, diabetic rats; conditions: for C peptide serum concentration: doses daily for 5 days orally, n = 8
Method: as §1, §2, §3, §4
15 minutes after the 5th dose, the animals were exposed to an oral glucose tolerance test (OGTT) using 4 g/kg, orally. Glucose blood concentrations were measured before the treatment, after the 5th dose, before OGTT, and 30 minutes after OGTT. […]
All biochemical analyses of serum were done by standard procedures, as recommended by the International Federation for Clinical Chemistry (IFCC), on automatic spectrophotometer LISA 300 plus with International Quality Control. The following were measured in serum: […]

normoglycaemic rats [6] = experiment: C peptide serum concentration, normoglycaemic rats; conditions: for Effect on C peptide levels (in words): non-diabetic rats, 5 days treatment; for C peptide serum concentration: normoglycaemic rats, doses daily for 5 days orally, n = 8
Method: as §1, §2, §3, §5, §6, §7

[7] = 7 days treatment, MKH 2 mg/kg, lovastatin 20 mg/kg orally

SMILES	HDL cholesterol (diabetic rats [1])	LDL cholesterol (diabetic rats [1])	LDL/HDL ratio (diabetic rats [1])	Total cholesterol (diabetic rats [1])	Change in total cholesterol (in words) (diabetic rats [1])	Change in HDL levels (in words) (diabetic rats [1]; [7])	Glucose blood concentration, After OGTT (diabetic Wistar rats)	Glucose blood concentration, After treatment (one dose daily for 5 days) (diabetic Wistar rats)	Glucose blood concentration, Before treatment (diabetic Wistar rats)	Effect on glucose levels under increased glucose loading during the OGTT (in words) (diabetic Wistar rats)	Glucose blood concentration, After OGTT [2]	Glucose blood concentration, After treatment (one dose daily for 5 days) [2]	Glucose blood concentration, Before treatment [2]	Change in HDL serum cholesterol concentration (in words) (normoglycaemic rats [3])	Change in LDL serum cholesterol concentration versus control (in words) (normoglycaemic rats [3])	Change in total cholesterol serum concentration (in words) (normoglycaemic rats [3])	HDL serum cholesterol concentration (normoglycaemic rats [3])	LDL serum cholesterol concentration (normoglycaemic rats [3])	Serum total cholesterol concentration (normoglycaemic rats [3])	LDL:HDL Ratio (ratios of means) (normoglycaemic rats [3])	other results
CC[C@H](C)C(=O)O[C@H]1C[C@@H](C)C=C2C=C[C@H](C)[C@H](CC[C@@H]3C[C@@H](O)CC(=O)O3)[C@H]21 [Lovastatin, reference compound]	0.74 ± 0.16 mmol/L	0.09 ± 0.17 mmol/L	0.15 ± 0.29	1.19 ± 0.06 mmol/L	reduced total cholesterol by a similar amount	reduced HDLs significantly															
C[C@H](CCC(=O)[O-])[C@H]1CC[C@H]2[C@@H]3[C@H](O)C[C@@H]4C[C@H](O)CC[C@]4(C)[C@H]3CC(=O)[C@]12C.[Na+] [MKH, Sodium salt of 3α,7α-dihydroxy-12-oxo-5β-cholanate]	0.89 ± 0.14 mmol/L	0.03 ± 0.04 mmol/L	0.04 ± 0.04	1.21 ± 0.14 mmol/L	reduced total cholesterol by a similar amount	this effect was not observed; also recorded: did not do so	27.05 ± 1.17 mmol/L	22.34 ± 1.15 x mmol/L	24.73 ± 2.15 mmol/L	beneficial effects	8.52 ± 3.19 mmol/L	5.42 ± 1.15 mmol/L	6.82 ± 2.15 mmol/L	no significant changes	significantly decreased (one third of control values)	no significant changes	0.73 ± 0.20 mmol/L	0.11 ± 0.04 mmol/L	0.99 ± 0.30 mmol/L	0.01	Effect on glucose levels before and after the OGTT (in words) (diabetic Wistar rats; diabetic rats, 5 days treatment): significant decrease; Change in LDL cholesterol levels (in words) (diabetic rats [4]; 5 days treatment): decreases in LDL levels and while these were not statistically significant; Change in LDL:HDL ratio (in words) (diabetic rats [4]; 5 days treatment): slight increase; Change in total cholesterol serum concentration (in words) (diabetic rats [4]; 5 days treatment): no significant changes; HDL cholesterol serum concentration (diabetic rats [4]): 0.50 ± 0.12 !! mmol/l; LDL cholesterol serum concentration (diabetic rats [4]): 0.56 ± 0.17 mmol/L; Serum total cholesterol concentration (diabetic rats [4]): 1.03 ± 0.26 mmol/L; Change in HDL levels (in words) (diabetic rats [4]; 5 days treatment, MKH 4 mg/kg): A decrease was observed; LDL:HDL Ratio (ratios of means) (diabetic rats [4]): 1.12; Change in LDL levels (in words) (diabetic rats [1]; [7]): very highly significant decrease; also recorded: significantly greater than that achieved by Lovastatin; Change in LDL:HDL ratio (in words) (diabetic rats [1]; Day 7): significant decrease; C peptide serum concentration (diabetic rats [5]): 178.38 ± 34.25 pmol/L; Effect on C peptide levels (in words) (normoglycaemic rats [6]): Neither stevioside or 3α,7α-dihydroxy-12-oxo-5β-cholanate alone had statistically significant effects; C peptide serum concentration (normoglycaemic rats [6]): 230.87 ± 80.64 pmol/L
C=C1C[C@@]23CC[C@H]4[C@@](C)(CCC[C@@]4(C)C(=O)O[C@@H]4O[C@H](CO)[C@@H](O)[C@H](O)[C@H]4O)[C@@H]2CC[C@]1(O[C@@H]1O[C@H](CO)[C@@H](O)[C@H](O)[C@H]1O[C@@H]1O[C@H](CO)[C@@H](O)[C@H](O)[C@H]1O)C3 [Stevioside]							28.03 ± 1.08 mmol/L	22.53 ± 1.07 mmol/L	25.14 ± 1.87 mmol/L	beneficial effects	11.4 ± 2.9 mmol/L	5.47 ± 0.67 mmol/L	6.95 ± 0.99 mmol/L	no significant changes	significantly decreased (one third of control values)	no significant changes	0.78 ± 0.18 mmol/L	0.1 ± 0.08 mmol/L	1.1 ± 0.30 mmol/L	0.13	Change in LDL cholesterol levels (in words) (diabetic rats [4]; 5 days treatment): highly significant decrease; Change in total cholesterol serum concentration (in words) (diabetic rats [4]; 5 days treatment): no significant changes; HDL cholesterol serum concentration (diabetic rats [4]): 0.85 ± 0.20 mmol/L; LDL cholesterol serum concentration (diabetic rats [4]): 0.42 ± 0.09 mmol/L; Serum total cholesterol concentration (diabetic rats [4]): 1.39 ± 0.31 mmol/L; LDL:HDL Ratio (ratios of means) (diabetic rats [4]): 0.49; Effect on C-peptide (in words) (diabetic rats [5]; 5 days treatment): significant increases; C peptide serum concentration (diabetic rats [5]): 230.12 ± 28.45 pmol/L; Effect on C peptide levels (in words) (normoglycaemic rats [6]): Neither stevioside or 3α,7α-dihydroxy-12-oxo-5β-cholanate alone had statistically significant effects; C peptide serum concentration (normoglycaemic rats [6]): 294 ± 93.2 pmol/L
